# “And” between values parts separate entries of the source, which are not always exact repeats. Equal entries are not always repeated. Marks after values point to notes of the source that are not given here.
# Tests used:
# [1] = tested on: peripheral blood CD3+ T cells; experiment: TCR/CD3 stimulated proliferation of liposome-transfected CD3+ T cells treated with 8-CPT-cAMP; format: cell-based, human; conditions: for IC50: FIG. 10
# Procedure: FIG. 8. Reversal of cAMP-mediated inhibition of TUR/CD3 stimulated T cell proliferation by the use of ribozyme to the RIα subunit of protein kinase A type I. TCR/CD3 stimulated proliferation of peripheral blood CD3+ T cells from normal healthy blood donor following treatment with liposomes alone (mock) or with liposomes and RIα ribozyme (RIα rbz, 10 μM) in the absence (solid bars) and presence (open bars) of 8-CPT-cAMP (12,5 μM).
# FIG. 9. Reversal of cAMP-mediated inhibition of TCR/CD3 stimulated T cell proliferation by the use of competitor peptide to compete the TCR/CD3 associated anchoring of RIα subunit of protein kinase A type I in T cells. TCR/CD3 stimulated proliferation of peripheral blood CD3+ T cells from normal healthy blood donor following treatment with liposomes alone (mock) or with increasing concentrations (25 to 100 μM) of a competitor peptide (Ht-31) that competes anchoring, to PKA type II or a control peptide (Ht31-P).
# FIG. 10. TCR/CD3 stimulated proliferation of peripheral blood CD3+ T cells in the presence of increasing, concentrations of 8-CPT-cAMP. Normalized levels of proliferation of T cells mock transfected with liposomes only (solid circles, continuous line) or incubated with liposomes and Ht31 peptide (35 μM) to compete anchoring of protein kinase A type I (open circles, dotted line) was assessed as [^3H]-thymidine incorporation after 48 h during which [^3H]-thymidine was added for the last 18 h. Note: right shift of the IC50 (arrow) from 1,8 to 4,8 μM in the presence of […].
# When transfected as synthetic RNA ribozyme or as a synthetic RNA ribozyme stabilized by incorporation of 2-deoxycytosine and 2-deoxy-uracil analogs into peripheral blood CD3+ T cells, the ribozyme reduced levels of RIα protein to approximately 20% of control levels by removing the RIα mRNA. By this strategy, the majority of protein kinase A type 1 was removed from the T cells. We then assessed the immune responsiveness of CD3+ T cells transfected with ribozyme compared to control (mock) transfected T cells measured as T cell proliferation after activation of T cells by stimulation of the T cell receptor/CD3 complex (TCR/CD3). In order to simulate a T cell dysfunction as that of HIV infection, with elevated levels of cAMP and increased activation of protein kinase A type 1, we treated normal T cells with low dose (12.5 around IC50) of the cAMP analog 8-(4-chlorophenyl)-thio-cAMPS (8-CPT-cAMP). […] For in vivo use pretreatment of ribozymes to allow cellular uptake or introduction into cells as minigenes will be necessary.
# We incubated blood CD3+ T cells with increasing concentrations of Ht31 (SEQ. ID. NO 2) peptide. In order to facilitate uptake, cells were treated with liposomes in the presence or absence of-peptide. The optimal concentrations of DOTAP liposomes and anti-CD3 antibody were titrated carefully in order to maintain the membrane stability and normal TCR/CD3-dependent activation of the T cells. Cells were incubated for 20 hours with DOTAP/peptide and incubations continued in the absence (solid bars) or presence of 8-CPT-cAMP (6.25 μM, hatched bars) and activated to proliferation by stimulation of TCR/CD3 T cell immune responsiveness was assessed as [3H]thymidine incorporation.
# Next, the effect of the competitor peptide (Ht-31, 35 μM) on T cell proliferation was examined in the presence of increasing concentrations of 8-CPT-cAMP and compared to mock transfected cells treated with the same concentrations of 8-CPT-cAMP (FIG. 10). As shown previously for normal peripheral blood T cells. […] Compared to the left-shifted curves observed with T cells from HIV-infected patients or patients with CIV due to elevated levels of endogenous cAMP activating PKA type 1, the right-shift observed here would be expected to normalize the situation in patients.
# [2] = tested on: peripheral blood CD3+ T cells; experiment: TCR/CD3 (anti-CD3) stimulated T cell proliferation, [3H]-thymidine incorporation; format: cell-based, human
# Procedure: (§1) Human peripheral blood CD3+ T cells were purified by negative selection from 50 ml of heparin-treated blood from normal healthy donors (Ullevaal University Hospital Blood Center, Oslo. Norway) or patients. Briefly, peripheral blood mononuclear cells were isolated by density gradient (Lymphoprep, NycoMed, Oslo, Norway) centrifugation followed by negative selection using monodisperse magnetic beads directly coated with antibodies to CD14 and CD19 and rat anti-mouse IgG beads coated with antibodies to CD56 and a magnet. Magnetic beads were all from Dynal (Oslo, Norway, cat. no. 111.12, 111.04, and 110.11. respectively) whereas anti-CD56 antibody was from Pharmingen (San Diego, Calif., cat. no. 31660.d). All steps were performed at 4° C.
# as §1, with “Peripheral blood” for “Human peripheral blood”, “Center, Oslo,” for “Center, Oslo.”, “selection using,” for “selection using”, “and 110.11,” for “and 110.11.”, “Calif., eat.” for “Calif., cat.”
# Proliferation assays were performed by incubation of 0.75×10^6 CM+ T cells/ml in a 100 μl volume in that-bottom 96-well microtiter plates. Activation was achieved by subsequent addition of monodisperse magnetic beads coated with sheep anti-mouse IgG (Dynal. cat. no. 110.02) at a cell:bead ratio of 1:1 followed by addition of antiCD3 (clone SpvT3b) at a final dilution of 1:125,000 for the experiments shown. The optimal concentration of antibody was titrated carefully in the initial setup and parallel experiments at several different dilutions of antibody was always performed. Proliferation was analyzed by incubating, cells for 72 hours during which [^3H]thymidine was included for the last 16 hours. Cells were washed and harvested onto filters using a Scatron harvester (Suffolk, UK) and subsequently analyzed by β-scintillation counting. cAMP analogs, when used, were added 30 min prior to activation by addition of […] antibodies. 8-CPT-cAMP was from Sigorna (St. Louis, Mo.) and Sp- and Rp-8-Br-cAMPS were from BioLog Life Science Company (Bremen, Germany) and were all dissolved to concentrations of 4 to 10 mM in PBS and concentrations calculated using the extinction coefficients given by the manufacturer.
compound,measurement,setting,value
"Nc1ncnc2c1nc(Sc1ccc(Cl)cc1)n2[C@@H]1O[C@@H]2COP(=O)(O)O[C@H]2[C@H]1O [8-CPT-cAMP, 8-(4-chlorophenylthio)cAMP, reference compound]",T cell proliferation in presence of cAMP analog,"[1]; mock transfected normal T cells, 8-CPT-cAMP 12.5 μM, FIG. 8",approximately 20 % of control
same,IC50,"[1]; normal T cells incubated with liposomes and Ht31 peptide (35 μM), read-out: apparent IC50, inhibition of TCR/CD3 stimulated proliferation",4.8 µM
same,IC50,"[1]; normal T cells mock transfected with liposomes only, read-out: IC50, inhibition of TCR/CD3 stimulated proliferation",~1.8 µM and 1.8 µM
same,Hill coefficient of cAMP-inhibition curve,"[2]; T cells from HIV seropositive individuals, n=18",1.19 (1.13–1.40)
same,Inhibition of proliferation by 8-CPT-cAMP Hill coefficient,"[2]; T cells from HIV+ asymptomatic patients, n = 8, median (25 to 75% range)",1.18(1.09–1.36)^b
same,IC50,"[2]; T cells from HIV+ asymptomatic patients, n = 8, median (25 to 75% range), read-out: Inhibition of proliferation by 8-CPT-cAMP IC50",2.26 µM
same,Inhibition of proliferation by 8-CPT-cAMP Hill coefficient,"[2]; T cells from HIV+ symptomatic patients, n = 10, median (25 to 75% range)",1.19(1.13–1.40)^o
same,IC50,"[2]; T cells from HIV+ symptomatic patients, n = 10, median (25 to 75% range), read-out: Inhibition of proliferation by 8-CPT-cAMP IC50",1.87 µM
same,IC50,"[2]; T cells from a healthy blood donor, FIG. 1B, read-out: IC50, inhibition of TCR/CD3 stimulated proliferation",6.11 µM
same,IC50,"[2]; T cells from a representative HIV-infected patient (#10 in Table 2a), FIG. 1B, read-out: IC50, inhibition of TCR/CD3 stimulated proliferation",1.78 µM
same,Inhibition of proliferation by 8-CPT-cAMP Hill coefficient,"[2]; T cells from normal controls, n = 8, median (25 to 75% range)",1.59(1.40–1.81)
same,IC50,"[2]; T cells from normal controls, n = 8, median (25 to 75% range), read-out: Inhibition of proliferation by 8-CPT-cAMP IC50",4.59 µM
same,Inhibition of proliferation by 8-CPT-cAMP Hill coefficient,"[2]; T cells from patients on triple combination therapy, n = 9, median (25 to 75% range)",1.35(1.33–1.68)
same,IC50,"[2]; T cells from patients on triple combination therapy, n = 9, median (25 to 75% range), read-out: Inhibition of proliferation by 8-CPT-cAMP IC50",2.59 µM
same,Inhibition of proliferation by 8-CPT-cAMP (−Hill coefficient),[2]; T cells of individual CVI patients #1-#7,1.34 and 1.38 and 2.03 and 1.39 and 1.46 and 1.47 and 1.26
same,IC50,"[2]; T cells of individual CVI patients #1-#7, read-out: Inhibition of proliferation by 8-CPT-cAMP (IC50)",3.68 µM and 3.36 µM and 3.16 µM and 2.66 µM and 2.34 µM and 2.98 µM and 2.26 µM
same,Inhibition of proliferation by 8-CPT-cAMP (−Hill coefficient),[2]; median in 7 CVI patients,1.39^§
same,IC50,"[2]; median in 7 CVI patients, read-out: Inhibition of proliferation by 8-CPT-cAMP (IC50)",2.98 µM
same,Inhibition of proliferation by 8-CPT-cAMP (−Hill coefficient),[2]; median in 8 healthy controls,1.59
same,IC50,"[2]; median in 8 healthy controls, read-out: Inhibition of proliferation by 8-CPT-cAMP (IC50)",4.59 µM
same,IC50,"[2]; one healthy control, FIG. 4B, read-out: IC50, inhibition of anti-CD3 stimulated T lymphocyte proliferation",4.66 µM
same,IC50,"[2]; one representative CVI patient, FIG. 4B, read-out: IC50, inhibition of anti-CD3 stimulated T lymphocyte proliferation",2.26 µM

# — patent US7192932B1, “Use of immunomodulating agents” (Lauras AS, priority 1997, dated 2007)
